The text below walks through data of patent US20220257727A1, “PHARMACEUTICAL COMPOSITION CONTAINING LYSOZYME AND USE THEREOF” (GUANGZHOU CENTURY CLINICAL RESEARCH., LTD., priority 2019, published 2022).

Data set [1] relates to psoriasis. Put plainly: Case studies of patients with drug-resistant psoriasis (PASI score, skin state, recurrence, tolerability).
Description: (§1) Psoriasis can be divided into mild, moderate, and severe according to the severity. The severity can be determined by PASI (Psoriasis Area Severity Index) scores. PASI is a set of scoring indicators that are widely used internationally to reflect the severity of psoriasis. In the scoring system, four parts, i.e., the head, upper limbs, torso, and lower limbs, are used for comprehensive scoring according to indicators such as erythema, desquamation, infiltration, and area of involvement. The higher the score, the more severe the condition of psoriasis. The specific scoring rules are well known in the field of medical diagnosis.
(§2) Ineffective: The PASI score of psoriasis after treatment is more than 50% of the score before treatment, namely, PASI after treatment÷PASI before treatment×100%>50%.
The subject of data set [2] is psoriasis. The following applies: human, in vivo.
Description: as §1, §2
Where [3] appears, read: Example 4, person, tretinoin cream, calcipotriol ointment and other treatments.
Where [4] appears, read: Example 4, after tretinoin cream, calcipotriol ointment and other treatments.
Setting [5] is: Example 6, person, tretinoin cream, calcipotriol ointment, methotrexate tablets and other treatments in the past.
[6] abbreviates: Example 6, after tretinoin cream, calcipotriol ointment, methotrexate tablets and other treatments, severe psoriasis.
Setting [7] is: Example 7, after secukinumab treatment.

As for `CCOC(=O)c1ccc(C#Cc2ccc3c(c2)C(C)(C)CCS3)nc1` [tazarotene cream, tazarotene], the “effect of treatment” value in data set [1] (Example 5, person, two months of treatment) is “ineffective”.

In the case of `C=C1/C(=C\C=C2/CCC[C@]3(C)[C@@H]([C@H](C)/C=C/[C@@H](O)C4CC4)CC[C@@H]23)C[C@@H](O)C[C@@H]1O` [calcipotriol ointment, calcipotriol], the PASI score came out at 5.3 in data set [1] (Example 3, person, after 1 month of use) and 13.8 in data set [1] (setting [6]). In addition, in data set [1] (Example 3, after 1 month of use), the “PASI improvement vs before treatment” value was determined as 10%. Besides, the “effect of treatment” value in data set [1] (setting [3]) is reported as “healed”; in data set [1] (setting [5]), “not alleviated”. Also, the “relapse” value in data set [1] (setting [4]) is “relapsed three months after the drug withdrawal”. For the same compound, the skin irritation entry in data set [2] is on record as “severe”.

As for Adalimumab, in data set [1] (Example 6, after one course of treatment, PASI before 13.8), the PASI decrease is on record as 32%.

In the case of `CN(Cc1cnc2nc(N)nc(N)c2n1)c1ccc(C(=O)N[C@@H](CCC(=O)O)C(=O)O)cc1` [methotrexate tablets, methotrexate], the “relapse” value in data set [1] (Example 3, after relief, within two years follow-up) is “relapsed twice”. Further, the “effect of treatment” value in data set [1] (Example 3, taken after lysozyme buccal tablets withdrawal, self-reported) is listed as “the psoriasis was relieved”; in data set [1] (Example 4, oral treatment after relapse), “the condition was not alleviated”; in data set [1] (setting [5]), “not alleviated”. Also, the PASI score in data set [1] (Example 4, after oral methotrexate treatment) amounted to 9.3; in data set [1] (setting [6]) it was 13.8.

With secukinumab: IL-17 inhibitor, in data set [1] (setting [7]), the PASI decrease is 10% and the PASI score was determined as 8.7. In addition, in data set [2], the “tolerability” value is “intolerance occurred”.

With `CC1=C(/C=C/C(C)=C/C=C/C(C)=C/C(=O)O)C(C)(C)CCC1` [tretinoin cream, tretinoin], the “effect of treatment” value in data set [1] (setting [3]) is on record as “healed”; in data set [1] (setting [5]), “not alleviated”. In addition, in data set [1] (setting [4]), the “relapse” value is recorded as “relapsed three months after the drug withdrawal”. The PASI score in data set [1] (setting [6]) was 13.8.
